The test system of one experiment is serotonin-2 receptor. Briefly: Anti-serotonin action (anti-5-HT action): contraction of isolated superior mesenteric artery induced by serotonin. The settings on record: contraction induced by 10^−5 M serotonin (5-HT) taken as 100%, Hartley male guinea pig superior mesenteric artery; for Anti 5-HT action (% of Control) 10^−6 M: test drug 10^−6 M; for Anti 5-HT action (% of Control) 10^−7 M: test drug 10^−7 M. How it is done: (1) Anti-Serotonin Action (Anti-5-HT Action)
A preparation cut in a helical form was suspended under 0.3 g load in a Magnus cylinder filled with the Tyrode solution which had been aerated with a gas mixture of 95% O2+5% CO2 and maintained at 37° C. Using an isometric transducer (“UL-10”, manufactured by SHINKOH K.K.) and a pressure preamplifier (“DSA-605A”, manufactured by SHINKOH K.K.), variations in tension were measured. The isometric tensions were recorded on a pen-writing recorder (“VP-6537A”, manufactured by NATIONAL K.K.). Taking the contraction induced by 10^−5 M serotonin (5-HT) as 100%, the percent contractions in the presence of each test drug at 10^−7 and 10^−6 M were determined as anti-5-HT action.

The test system of the next experiment is α1 receptor. Briefly: Anti-α1 action: tonic contraction of isolated thoracic aorta induced by norepinephrine. The settings on record: tonic contraction induced by 10^−5 M norepinephrine (NE) taken as 100%, Hartley male guinea pig thoracic aorta; for Anti α1 action (% of Control) 10^−7 M: test drug 10^−7 M; for Anti α1 action (% of Control) 10^−8 M: test drug 10^−8 M. The procedure:
The thoracic aorta of each Hartley male guinea pig (body weight: 300-500 g) was excised. A preparation cut in a helical form was suspended under 1 g load in a Magnus cylinder filled with the Tyrode solution which had been aerated with a gas mixture of 95% O2+5% CO2 and maintained at 37° C. Using an isometric transducer (“TB-612J”, manufactured by NIHON KOHDEN) and a pressure preamplifier (“AP-620G”, manufactured by NIHON KOHDEN), variations in tension were measured. The isometric tensions were recorded on a thermal pen-writing recorder (“WT-647G”, manufactured by NIHON KOHDEN).
Taking the tonic contraction induced by 10^−5 M norepinephrine (NE) as 100%, the percent contractions upon addition of each test drug at 10^−8 and 10^−7 M were determined as anti-α1 action.

Turning to `COc1ccc2c(c1)C1(CN(CCCN3CCN(c4ccc(F)cc4)CC3)S2(=O)=O)OCCO1` [Compound No. 115, 2-[3-[4-(4-fluorophenyl)piperazin-1-yl]propyl]-6-methoxy-3,4-dihydro-2H-1,2-benzothiazin-4-one 1,1-dioxide ethylene acetal], in the experiment on serotonin-2 receptor, the “Anti 5-HT action (% of Control) 10^−6 M” value is 14.1 % of Control and the “Anti 5-HT action (% of Control) 10^−7 M” value is listed as 63.0 % of Control. In the experiment with α1 receptor, the “Anti α1 action (% of Control) 10^−7 M” value was 62.3 % of Control and the “Anti α1 action (% of Control) 10^−8 M” value was 100.4 % of Control.

For the compound `COc1ccc2c(c1)C1(CN(CCCN3CCC(C(=O)c4ccc(F)cc4)CC3)S2(=O)=O)OCCO1` [Compound No. 116, 2-[3-[4-(4-fluorobenzoyl)piperidino]-propyl]-6-methoxy-3,4-dihydro-2H-1,2-benzothiazin-4-one 1,1-dioxide ethylene acetal], in the experiment with serotonin-2 receptor, the “Anti 5-HT action (% of Control) 10^−6 M” value was 13.9 % of Control and the “Anti 5-HT action (% of Control) 10^−7 M” value is 40.2 % of Control. In the experiment with α1 receptor, the “Anti α1 action (% of Control) 10^−7 M” value is listed as 88.3 % of Control and the “Anti α1 action (% of Control) 10^−8 M” value is given as 100.7 % of Control.

Turning to `O=S1(=O)c2ccc(Cl)cc2C2(CN1CCCN1CCN(c3ccc(F)cc3)CC1)OCCO2` [Compound No. 117, 6-chloro-2-[3-[4-(4-fluorophenyl)piperazin-1-yl]propyl]-3,4-dihydro-2H-1,2-benzothiazin-4-one 1,1-dioxide ethylene acetal], in the experiment on serotonin-2 receptor, the “Anti 5-HT action (% of Control) 10^−6 M” value is 23.6 % of Control and the “Anti 5-HT action (% of Control) 10^−7 M” value is listed as 48.0 % of Control. Further, in the experiment on α1 receptor, the “Anti α1 action (% of Control) 10^−7 M” value is reported as 80.2 % of Control and the “Anti α1 action (% of Control) 10^−8 M” value is 97.1 % of Control.

In the case of `COc1ccc2c(c1)S(=O)(=O)N(CCCN1CCC(C(=O)c3ccc(F)cc3)CC1)CC21OCCO1` [Compound No. 120, 2-[3-[4-(4-fluorobenzoyl)piperidino]propyl]-7-methoxy-3,4-dihydro-2H-1,2-benzothiazin-4-one 1,1-dioxide ethylene acetal], in the experiment on serotonin-2 receptor, the “Anti 5-HT action (% of Control) 10^−6 M” value is on record as 20.3 % of Control and the “Anti 5-HT action (% of Control) 10^−7 M” value is reported as 51.6 % of Control. In the experiment with α1 receptor, the “Anti α1 action (% of Control) 10^−7 M” value was 71.6 % of Control and the “Anti α1 action (% of Control) 10^−8 M” value is reported as 93.2 % of Control.

Consider `COc1cccc2c1C1(CN(CCCN3CCN(c4ccc(F)cc4)CC3)S2(=O)=O)SCCS1` [Compound No. 123, 2-[3-[4-(4-fluorophenyl)piperazin-1-yl]propyl]-5-methoxy-3,4-dihydro-2H-1,2-benzothiazine-4-spiro-2′-(1′,3′-dithiolane) 1,1-dioxide], for which, in the experiment with serotonin-2 receptor, the “Anti 5-HT action (% of Control) 10^−7 M” value is 49.3 % of Control. In the experiment with α1 receptor, the “Anti α1 action (% of Control) 10^−7 M” value is 13.0 % of Control and the “Anti α1 action (% of Control) 10^−8 M” value is reported as 97.9 % of Control.

For `O=S1(=O)c2ccccc2C2(CN1CCCN1CCN(c3ccccc3F)CC1)OCCO2` [compound 35, 2-[3-[4-(2-fluorophenyl)piperazin-1-yl]propyl]-3,4-dihydro-2H-1,2-benzothiazin-4-one 1,1-dioxide ethylene acetal], in the experiment on serotonin-2 receptor, the “Anti 5-HT action (% of Control) 10^−6 M” value is 7.5 % of Control and the “Anti 5-HT action (% of Control) 10^−7 M” value is 38.3 % of Control. For the same compound, in the experiment with α1 receptor, the “Anti α1 action (% of Control) 10^−7 M” value is recorded as 89.3 % of Control and the “Anti α1 action (% of Control) 10^−8 M” value is given as 99.0 % of Control.

Source of the values: US6664251B2, “Benzothiazine derivative” (Daiichi Suntory Pharma Co., Ltd., priority 1993, dated 2003).
